The conditions of data set [1]: in vivo; cited from earlier work.
For data set [2] the following is noted: cited from earlier work.
The next data set concerns PDE4. The following applies: catalytic site (Sc); cited from earlier work.
The conditions of data set [3]: 54 subjects; cited from earlier work.
Data set [4] relates to rhinorrhea in the antigen-challenged pig. The following applies: cited from earlier work.
Data set [5] has as its system LPS-stimulated ex vivo TNF release and PHA induced lymphocyte proliferation. The following applies: oral dose of 300 mg, cited from earlier work.
In the next data set the test system is guinea-pig trachea. The following applies: cited from earlier work.
Data set [6] has as its system guinea-pig macrophage PDE4. Particulars: cited from earlier work.
The subject of data set [7] is dextran sulfate induced colitis. Particulars: cited from earlier work; for effects in dextran sulfate induced colitis: rat.
In another data set the test system is TNF-α mRNA expression. Particulars: mouse, in vivo; cited from earlier work.
For data set [8] the following is noted: 35 rheumatoid arthritis patients, t.i.d.; cited from earlier work.
The test system of data set [9] is psoriatic epidermal slices and keratomed psoriatic epidermal slices. Particulars: cited from earlier work.
The next data set deals with epidermal basal cells. The following applies: primary culture; cited from earlier work.
The conditions of data set [10]: in vivo; cited from earlier work. This is another data set of the same source.
Data set [11] has as its system human peripheral blood mononuclear cells. Particulars: cited from earlier work.
For data set [12], the system named is endotoxin-induced acute renal failure. The following applies: cited from earlier work.
The conditions of data set [13]: 15 mg twice a day for six weeks; cited from earlier work.
Data set [14] deals with isolated pulmonary artery rings. The following applies: normal rats and rats with hypoxia-induced pulmonary hypertension; cited from earlier work.
In data set [15] the test system is croton oil-induced ear inflammation. The following applies: mouse; cited from earlier work.
Data set [16] relates to collagen II induced arthritis. Particulars: 2 mg/kg twice daily for five days before the onset of arthritis; cited from earlier work.
For data set [17], the system named is experimental allergic encephalomyelitis. The following applies: in vivo; cited from earlier work.

Structures are written as SMILES. Entries after “also recorded” stand apart in the source; their conditions may differ.

Take `Nc1nc2c([nH]1)c(=O)n(CC1CC1)c(=O)n2CC1CC1` [BRL-61,063, cipamfylline]: the “emesis / nausea and vomiting” value in [1] was “adverse events of nausea and vomiting”.

Turning to `COc1ccc([C@H](Cc2ccncc2)c2ccccc2)cc1OC1CCCC1` [CDP840], the “late reactions to inhaled allergen / late-phase response” value in data set [2] (patients with bronchial asthma, oral) was “suppression; also recorded: significant inhibition”. Moreover, the adverse events entry in [2] (treatment of asthma) is given as “without any adverse events of nausea or headache”. Moreover, the “potency at the Sc relative to SB-207,499” value in the data set with PDE4 was “significantly higher potency”.

As to `Cc1cc2c3c(c1)C(c1ccccc1)=N[C@@H](NC(=O)c1ccncc1)C(=O)N3CC2` [CI-1018], the “doses at which no adverse events were reported” value in [3] was “up to 400 mg”.

The melting point is the temperature of the solid-liquid transition. Molecule `CC(C)(O)c1ccc(CNC(=O)c2scnc2Oc2ccc3c(c2)OCO3)c(F)c1` [Example 5, 4-(Benzo[1,3]dioxol-5-yloxy)-thiazole-5-carboxylic acid 2-fluoro-4-(1-hydroxy-1-methyl-ethyl)-benzylamide] returned a melting point of 117 to 118 °C.

On to `CCCC1C(=O)C2=C(C(CC)=NC2C)c2nc(OC)ccc21` [Example D-22888], for which the rhinorrhea result in data set [4] (antigen-challenged pig) is “inhibit rhinorrhea”. Moreover, the anti-allergic effect result in data set [4] (pig, in vivo) is “strong anti-allergic affect”.

On to `CCNc1ncn(Cc2ccc(OC)c(OC3CCCC3)c2)c2nc(C(C)C)nc1-2` [Example V-11294A], for which the “reduction of TNF levels” value in [5] (LPS-stimulated ex vivo TNF release) was “effective”. In addition, in data set [5] (PHA induced), the “reduction of lymphocyte proliferation” value is on record as “effective”.

For the molecule `O=S1(=O)CCN(c2nc(NC3CC3)nc(C3CC3)n2)C1` [Formula (0.0.56)], the “relaxant activity in a guinea-pig trachea model” value with guinea-pig trachea is “potent relaxant agents”.

As for `CC1CC1c1nc(NC2CC2)nc(N2CCOCC2)n1` (centres unmarked) [Formula (0.0.57)], the “relaxant activity in a guinea-pig trachea model” value in the data set with guinea-pig trachea is reported as “potent relaxant agents”.

One may read the IC50 as the concentration needed to halve the response being measured. Consider `COc1ccc(S(=O)(=O)C(CCCCc2ccccc2)CC(=O)NO)cc1OC` (centres unmarked) [Formula (0.1.36)], for which the concentration for half-maximal inhibition (IC50) in data set [6] was 1 nM.

Regarding `COc1ccc(S(=O)(=O)C(CCCCc2ccccc2)C(C)C(=O)NO)cc1` (centres unmarked) [Formula (0.1.37)], in data set [6], the concentration for half-maximal inhibition (IC50) is 30 nM.

Turning to `CCCn1c(=O)c2[nH]cnc2n(-c2ccc(Cl)cc2)c1=O` [LAS31025], the “effects in dextran sulfate induced colitis” value in [7] was “beneficial effects comparable to prednisolone”.

`COc1ccc(C(=O)Nc2c(Cl)cncc2Cl)cc1OC1CCCC1` [RP73401]: in the data set with TNF-α mRNA expression, the “TNF-α mRNA expression at the pannus/cartilage interface of paw joints” value is “decrease”. In data set [8], the “clinical effect, with reduction in C-reactive protein and IL-6 serum levels” value is on record as “positive trend towards clinical improvement”.

On to `COc1ccc(CC2CNC(=O)N2)cc1OC1CCCC1` (centres unmarked) [Ro 20-1724], for which the “cAMP concentrations over controls” value in [9] was “very marked elevation”. Moreover, in the data set on epidermal basal cells, the “increase in cAMP concentrations” value is given as “three-fold increase”. In addition, in data set [10], the adverse effects entry is given as “without adverse systemic or cutaneous effects” and the “psoriatic lesions compared with vehicle” value was “improve psoriatic lesions”.

Take `COc1ccc(CC2CNC(=O)N2)cc1OC1CCCC1` (centres unmarked) [Ro-201724]: in data set [11], the “proliferation of HPBM from normal patients and subjects with atopic dermatitis” value (from here on “proliferation of HPBM”) is “concentration-related inhibition”. Also, in data set [12] (post-treatment at 10 μg/kg/min), the “endotoxin-induced increases in renal vascular resistance and decreases in renal blood flow and glomerular filtration rate” value is recorded as “markedly attenuates”; the “urinary cAMP excretion” value is “significantly increases”. In [12] (rat, in vivo), the “survival rates for endotoxin-treated rats” value is listed as “improve survival rates”.

`COc1ccc([C@]2(C#N)CC[C@@H](C(=O)O)CC2)cc1OC1CCCC1` [SB-207,499]: the “FEV1 and forced vital capacity (FVC)” value in data set [13] is “increrases”.

`CCCn1c(=O)c2[nH]cnc2n(-c2ccc(Cl)cc2)c1=O` [arofylline]: in data set [7] (in vivo), the “effects in models of colitis in the rat” value was “beneficial effects”.

Turning to `CCCCn1c(=O)c2c(ncn2CC(C)=O)n(CCCC)c1=O` [denbufylline], in data set [11], the “proliferation of HPBM” value is “concentration-related inhibition”.

For the molecule `Cc1[nH]c(=O)c(C#N)cc1-c1ccncc1` [milrinone], the “effect on relaxation of pulmonary artery rings” value in data set [14] is listed as “same effect”.

As for `COc1ccc(C2CNC(=O)C2)cc1OC1CCCC1` (centres unmarked) [rolipram], in [11], the “proliferation of HPBM” value is “concentration-related inhibition”. In data set [15], the “lowest topical dose inhibiting croton oil-induced ear inflammation” value is on record as 0.03 mg per ear. For the same molecule, in data set [16], the “appearance of arthritic symptoms” value is listed as “significantly delayed”. Besides, the “effects in dextran sulfate induced colitis” value in data set [7] is “beneficial effects comparable to prednisolone”. Moreover, the “clinical signs and MRI imaging” value in [17] was “suppress the appearance of clinical signs and abolish abnormalities in MRI imaging”. In [14], the “effect on relaxation of pulmonary artery rings” value was “potentiates the relaxant activities of isoproterenol and forskolin”.

The values above are taken from US6869945B2, “Pyrrolyl-and imidazolyl-acid amide derivatives useful as inhibitors of PDE4 isozymes” (Pfizer Inc, priority 2001, dated 2005).
